This is an account of results in US12187712B2, “Cardiac sarcomere inhibitors” (Cytokinetics, Inc., priority 2018, dated 2025).

Some results are limits rather than exact numbers.

For this test, the target named is T1, bovine cardiac myofibrils (Bos taurus, UniProt Q9BE39).
T1 construct: full-length cardiac myosin in the context of the native sarcomere, skinned myofibril assays were performed; from tissue; host or cells: bovine cardiac left ventricular tissue, detergent-skinned (Triton X-100) myofibrils
T1 sequence (Q9BE39 whole entry): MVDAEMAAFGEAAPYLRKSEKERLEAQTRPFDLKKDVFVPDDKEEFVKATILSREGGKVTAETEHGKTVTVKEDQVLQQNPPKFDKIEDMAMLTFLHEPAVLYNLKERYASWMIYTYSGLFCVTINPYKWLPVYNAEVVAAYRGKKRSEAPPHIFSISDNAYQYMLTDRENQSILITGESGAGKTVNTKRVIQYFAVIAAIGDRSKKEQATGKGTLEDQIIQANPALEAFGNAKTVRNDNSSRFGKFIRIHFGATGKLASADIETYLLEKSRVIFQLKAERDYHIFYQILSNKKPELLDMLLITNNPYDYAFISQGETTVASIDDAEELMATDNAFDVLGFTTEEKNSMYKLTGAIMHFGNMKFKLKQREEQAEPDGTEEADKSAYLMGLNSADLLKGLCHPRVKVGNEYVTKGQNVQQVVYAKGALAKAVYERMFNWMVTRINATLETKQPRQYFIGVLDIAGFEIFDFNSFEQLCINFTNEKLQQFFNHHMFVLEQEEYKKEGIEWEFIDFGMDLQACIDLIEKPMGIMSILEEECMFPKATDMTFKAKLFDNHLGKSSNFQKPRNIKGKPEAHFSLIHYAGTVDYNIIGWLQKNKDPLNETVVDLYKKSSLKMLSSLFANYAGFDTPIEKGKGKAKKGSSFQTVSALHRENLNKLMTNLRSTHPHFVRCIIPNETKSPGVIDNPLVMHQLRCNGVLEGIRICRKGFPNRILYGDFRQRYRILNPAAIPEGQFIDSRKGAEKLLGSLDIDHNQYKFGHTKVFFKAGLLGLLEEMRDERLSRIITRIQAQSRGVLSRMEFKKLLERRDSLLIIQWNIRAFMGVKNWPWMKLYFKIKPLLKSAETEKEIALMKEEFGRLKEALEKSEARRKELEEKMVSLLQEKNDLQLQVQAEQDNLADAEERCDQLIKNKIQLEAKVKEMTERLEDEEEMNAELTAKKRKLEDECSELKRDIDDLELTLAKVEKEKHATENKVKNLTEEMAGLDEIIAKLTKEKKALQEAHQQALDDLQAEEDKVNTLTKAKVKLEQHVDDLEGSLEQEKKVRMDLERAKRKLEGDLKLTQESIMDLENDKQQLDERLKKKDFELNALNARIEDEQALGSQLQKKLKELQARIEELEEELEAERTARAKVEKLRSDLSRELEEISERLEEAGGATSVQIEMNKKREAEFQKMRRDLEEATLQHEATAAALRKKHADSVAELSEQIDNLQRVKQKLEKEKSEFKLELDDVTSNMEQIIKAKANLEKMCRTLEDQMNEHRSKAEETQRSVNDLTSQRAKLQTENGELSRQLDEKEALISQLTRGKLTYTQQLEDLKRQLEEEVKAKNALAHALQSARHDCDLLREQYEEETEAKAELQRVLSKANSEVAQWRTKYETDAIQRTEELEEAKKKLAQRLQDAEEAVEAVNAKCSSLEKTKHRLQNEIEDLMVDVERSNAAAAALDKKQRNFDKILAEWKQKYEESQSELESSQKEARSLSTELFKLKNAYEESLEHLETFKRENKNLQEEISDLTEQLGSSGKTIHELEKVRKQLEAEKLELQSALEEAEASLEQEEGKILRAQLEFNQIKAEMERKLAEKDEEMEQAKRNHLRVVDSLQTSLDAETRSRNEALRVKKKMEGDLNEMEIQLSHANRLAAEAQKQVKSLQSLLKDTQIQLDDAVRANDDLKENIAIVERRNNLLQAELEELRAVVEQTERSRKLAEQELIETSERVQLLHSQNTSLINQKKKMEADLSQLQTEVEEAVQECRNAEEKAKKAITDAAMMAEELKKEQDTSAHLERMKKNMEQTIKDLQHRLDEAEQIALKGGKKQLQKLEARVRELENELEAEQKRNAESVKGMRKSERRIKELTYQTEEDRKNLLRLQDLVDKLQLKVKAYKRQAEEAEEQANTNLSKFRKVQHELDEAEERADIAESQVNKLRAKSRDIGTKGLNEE
T1 sequence (P85100 whole entry partner): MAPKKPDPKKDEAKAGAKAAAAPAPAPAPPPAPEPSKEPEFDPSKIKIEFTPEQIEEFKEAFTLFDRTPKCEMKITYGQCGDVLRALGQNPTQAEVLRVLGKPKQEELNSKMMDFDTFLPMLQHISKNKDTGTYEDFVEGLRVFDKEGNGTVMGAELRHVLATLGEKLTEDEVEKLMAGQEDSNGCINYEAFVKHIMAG
T1 sequence (Q3SZE5 whole entry partner): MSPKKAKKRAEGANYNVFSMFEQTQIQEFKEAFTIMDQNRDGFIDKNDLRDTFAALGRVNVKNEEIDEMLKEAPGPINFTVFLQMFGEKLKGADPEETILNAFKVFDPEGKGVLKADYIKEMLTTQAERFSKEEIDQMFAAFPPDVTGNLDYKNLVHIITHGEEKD
Nature of the test: Skinned myofibril ATPase assay (PK/LDH-coupled), CDMF75. Format: biochemical. As to conditions: inhibition of steady-state ATPase activity of bovine cardiac myofibrils at 75% Ca2+ activation (pCa75). As for the experimental part: To evaluate the effect of compounds on the ATPase activity of full-length cardiac myosin in the context of the native sarcomere, skinned myofibril assays were performed. Bovine cardiac myofibrils were obtained by homogenizing bovine cardiac left ventricular tissue in the presence of a detergent such as triton X-100. Such treatment removes membranes and a majority of the soluble cytoplasmic proteins but leaves intact the cardiac sarcomeric acto-myosin apparatus. Myofibril preparations retain the ability to hydrolyze ATP in an Ca^2+ regulated manner. ATPase activities of such myofibril preparations in the presence and absence of compounds were assayed at Ca^2+ concentrations activating to a defined fraction of the maximal rate (i.e., 25%, 75%). Small molecule agents were assessed for their ability to inhibit the steady-state ATPase activity of bovine cardiac myofibrils using pyruvate kinase and lactate dehydrogenase (PK/LDH)-coupled enzyme system. This assay regenerates myosin-produced ADP into ATP by oxidizing NADH, producing an absorbance change at 340 nm. Prior to testing small molecule agents, the bovine cardiac myofibrils were assessed for their calcium responsiveness and the calcium concentration that achieves either a 50% (pCa50) or 75% (pCa75) activation of the myofibril system was chosen as the final condition for assessing the inhibitory activity of the small molecule agents. All enzymatic activity was measured in a buffered solution containing 12 mM PIPES (piperazine-N,N′-bis(2-ethanesulfonic acid), 2 mM magnesium chloride at pH 6.8 (PM 12 buffer). Final assay conditions were 1 mg/mL of bovine cardiac myofibrils, 4 U/mL pyruvate kinase, 6 U/mL lactate dehydrogenase, 50 μM ATP, 0.1 mg/mL BSA (bovine serum albumin), 10 ppm antifoam, 1 mM DTT, 0.5 mM NADH, 1.5 mM PEP, 0.6 mM EGTA, and an amount of CaCl2 sufficient to achieve either 50% or 75% activation of the myofibril ATPase activity. Results for compounds tested are provided in Table A. Compounds tested were prepared in accordance with the synthetic procedures described herein.

Regarding `C[C@@H](Nc1cnccn1)c1ccc(-c2noc(-c3ccccc3)n2)cc1` [Compound 37, (R)-N-(1-(4-(5-phenyl-1,2,4-oxadiazol-3-yl)phenyl)ethyl)pyrazin-2-amine], the “CDMF75 IC15” value came out at 1.3 µM and it took 5.6 µM to reach half-maximal inhibition (IC50).

For `Cc1cc(-c2nc(-c3ccc([C@@H](C)Nc4cnccn4)cc3)no2)on1` [Compound 38, (R)-N-(1-(4-(5-(3-methylisoxazol-5-yl)-1,2,4-oxadiazol-3-yl)phenyl)ethyl)pyrazin-2-amine], the “CDMF75 IC15” value was 3.0 µM and the IC50 (usually the concentration at which inhibition is half-maximal) came out at 19.1 µM. As for `C[C@@H](Nc1cnccn1)c1ccc(-c2noc(-c3ccco3)n2)cc1` [Compound 39, (R)-N-(1-(4-(5-(furan-2-yl)-1,2,4-oxadiazol-3-yl)phenyl)ethyl)pyrazin-2-amine], the “CDMF75 IC15” value turned out to be 0.2 µM and half-maximal inhibition (IC50) was put at 0.9 µM. For `C[C@@H](Nc1cnccn1)c1ccc(-c2noc(-c3cccs3)n2)cc1` [Compound 40, (R)-N-(1-(4-(5-(thiophen-2-yl)-1,2,4-oxadiazol-3-yl)phenyl)ethyl)pyrazin-2-amine] the same measures were 0.3 µM and 1.1 µM.

On to `Cc1nc(-c2ccc(CNc3cnccn3)cc2F)no1` [Compound 41, N-(3-fluoro-4-(5-methyl-1,2,4-oxadiazol-3-yl)benzyl)pyrazin-2-amine], for which the “CDMF75 IC15” value was found to be 0.7 µM and the midpoint of inhibition, the IC50, lay at 3.9 µM.

With `Fc1cc(CNc2cnccn2)ccc1-c1noc(C(F)(F)F)n1` [Compound 42, N-(3-fluoro-4-(5-(trifluoromethyl)-1,2,4-oxadiazol-3-yl)benzyl)pyrazin-2-amine], the “CDMF75 IC15” value came out at 0.8 µM and the IC50 stood at 4.8 µM. For `C[C@@H](Nc1cnccn1)c1ccc(-c2noc(-c3ccsc3)n2)cc1` [Compound 43, (R)-N-(1-(4-(5-(thiophen-3-yl)-1,2,4-oxadiazol-3-yl)phenyl)ethyl)pyrazin-2-amine] the same measures were 0.4 µM and 1.7 µM. Turning to `Cc1nc(-c2ccc(CNc3ccnc(Cl)c3)cc2)no1` [Compound 44, 2-chloro-N-(4-(5-methyl-1,2,4-oxadiazol-3-yl)benzyl)pyridin-4-amine], the “CDMF75 IC15” value was 2.2 µM and the IC50 is 10.9 µM. For `Fc1cc(-c2noc(C(F)(F)F)n2)ccc1CNc1cnccn1` [Compound 45, N-(2-fluoro-4-(5-(trifluoromethyl)-1,2,4-oxadiazol-3-yl)benzyl)pyrazin-2-amine], the “CDMF75 IC15” value worked out at 0.9 µM and the half-maximal inhibitory concentration (IC50) is 4 µM. Consider `Cc1nc(-c2ccc(CNc3cnccn3)c(F)c2)no1` [Compound 46, N-(2-fluoro-4-(5-methyl-1,2,4-oxadiazol-3-yl)benzyl)pyrazin-2-amine], for which the “CDMF75 IC15” value came to 0.4 µM and the IC50 came out at 2.2 µM. Take `Fc1cc(-c2noc(C3CC3)n2)ccc1CNc1cnccn1` [Compound 47, N-(4-(5-cyclopropyl-1,2,4-oxadiazol-3-yl)-2-fluorobenzyl)pyrazin-2-amine]: the “CDMF75 IC15” value stood at 0.3 µM and 1.7 µM corresponded to half-maximal inhibition (IC50).

Turning to `Cc1cnc(-c2ccc(CNc3cnccn3)cc2)s1` [Compound 48, N-[[4-(5-methyl-1,3-thiazol-2-yl)phenyl]methyl]pyrazin-2-amine], the “CDMF75 IC15” value stood at 4.0 µM and the IC50 is 19 µM. With `Cc1cnc(-c2ccc(CNc3cnccn3)cc2)o1` [Compound 49, N-[[4-(5-methyl-1,3-oxazol-2-yl)phenyl]methyl]pyrazin-2-amine], the “CDMF75 IC15” value came out at 0.3 µM and 28.6 µM corresponded to half-maximal inhibition (IC50). As for `Cc1nc(-c2ccc(CNC(=O)c3ccccc3)cc2)no1` [Compound 50, N-(4-(5-methyl-1,2,4-oxadiazol-3-yl)benzyl)benzamide], the “CDMF75 IC15” value amounted to 3.4 µM and the midpoint of inhibition, the IC50, lay at 15.1 µM. In the case of `Cc1onc(-c2ccc(CNc3cnccn3)cc2)c1I` [Compound 51, N-(4-(4-iodo-5-methylisoxazol-3-yl)benzyl)pyrazin-2-amine], the “CDMF75 IC15” value was 0.2 µM and the IC50 stood at 0.9 µM. For the compound `Cc1cc(-c2ccc(CNc3cnccn3)cc2)on1` [Compound 53, N-(4-(3-methylisoxazol-5-yl)benzyl)pyrazin-2-amine], the “CDMF75 IC15” value worked out at 2.1 µM and the 50% inhibitory concentration (IC50) came to 9.4 µM. On to `COC(=O)NCc1ccc(-c2noc(C)n2)cc1` [Compound 54, methyl (4-(5-methyl-1,2,4-oxadiazol-3-yl)benzyl)carbamate], for which the “CDMF75 IC15” value was found to be 6.0 µM and the midpoint of inhibition, the IC50, lay at 25.8 µM.

For the compound `Cc1nc(-c2ccc3c(c2)CCC3Nc2cnccn2)no1` (centres unmarked) [Compound 55, N-[5-(5-methyl-1,2,4-oxadiazol-3-yl)-2,3-dihydro-1H-inden-1-yl]pyrazin-2-amine], the “CDMF75 IC15” value was 0.4 µM and the 50% inhibitory concentration (IC50) came to 1.3 µM.

`Cc1nc(-c2ccc(CNC(=O)Nc3ccccc3)cc2)no1` [Compound 56, 3-[[4-(5-methyl-1,2,4-oxadiazol-3-yl)phenyl]methyl]-1-phenylurea]: the “CDMF75 IC15” value turned out to be 1.2 µM and the IC50 was 4.7 µM. For `Cc1nc(-c2ccc(CNC(=O)OCc3ccccc3)cc2)no1` [Compound 57, benzyl (4-(5-methyl-1,2,4-oxadiazol-3-yl)benzyl)carbamate] the same measures were 3.1 µM and 19.3 µM.

As for `Cc1nc(-c2ccc(CNC(=O)Oc3ccccc3)cc2)no1` [Compound 58, phenyl (4-(5-methyl-1,2,4-oxadiazol-3-yl)benzyl)carbamate], the “CDMF75 IC15” value worked out at 2.3 µM and the IC50 is 11.4 µM. On to `Cc1nc(-c2ccc3c(c2)CCCC3Nc2cnccn2)no1` (centres unmarked) [Compound 59, N-(6-(5-methyl-1,2,4-oxadiazol-3-yl)-1,2,3,4-tetrahydronaphthalen-1-yl)pyrazin-2-amine], for which the “CDMF75 IC15” value was 0.7 µM and half-maximal inhibition (IC50) required 2.2 µM. Consider `Cc1nc(-c2ccc(CNC(=O)c3ccnc(N)c3)cc2)no1` [Compound 60, 2-amino-N-[[4-(5-methyl-1,2,4-oxadiazol-3-yl)phenyl]methyl]pyridine-4-carboxamide], for which the “CDMF75 IC15” value was 7.7 µM and the midpoint of inhibition, the IC50, lay at 30.8 µM. For `Cc1cc(-c2ccc(CNc3cccc(=O)[nH]3)cc2)no1` [Compound 61, 6-([[4-(5-methyl-1,2-oxazol-3-yl)phenyl]methyl]amino)-1,2-dihydropyridin-2-one] the same measures were 2.4 µM and 10.2 µM. Regarding `Cc1cc(-c2ccc(CNc3cc[nH]n3)cc2)no1` [Compound 62, N-(4-(5-methylisoxazol-3-yl)benzyl)-1H-pyrazol-3-amine], the “CDMF75 IC15” value was determined as 5.0 µM and the IC50 amounted to 23 µM. Take `Cc1nc(-c2ccc(CNC(=O)c3ccncc3O)cc2)no1` [Compound 63, 3-hydroxy-N-(4-(5-methyl-1,2,4-oxadiazol-3-yl)benzyl)isonicotinamide]: the IC50 was greater than 39.2 µM.

For the compound `Cc1cc(-c2ccc(CNc3ccn(C)n3)cc2)no1` [Compound 64, 1-methyl-N-(4-(5-methylisoxazol-3-yl)benzyl)-1H-pyrazol-3-amine], the “CDMF75 IC15” value was 7.7 µM and the IC50 is greater than 39.2 µM.

With `Cc1cc(-c2ccc(CNc3cc(=O)[nH]cn3)cc2)no1` [Compound 65, 6-((4-(5-methylisoxazol-3-yl)benzyl)amino)pyrimidin-4(3H)-one], the “CDMF75 IC15” value worked out at 7.6 µM and the IC50 was greater than 39.2 µM. For `COc1cc(NCc2ccc(-c3cc(C)on3)cc2)ncn1` [Compound 66, 6-methoxy-N-(4-(5-methylisoxazol-3-yl)benzyl)pyrimidin-4-amine] the same measures were 0.3 µM and 1.7 µM.

Regarding `COc1cnc(NCc2ccc(-c3cc(C)on3)cc2)cn1` [Compound 67, 5-methoxy-N-(4-(5-methylisoxazol-3-yl)benzyl)pyrazin-2-amine], the “CDMF75 IC15” value came to 0.4 µM and the IC50 was 2.2 µM. As for `Cc1cc(-c2ccc(CNc3cc(=O)cc[nH]3)cc2)no1` [Compound 68, 2-([[4-(5-methyl-1,2-oxazol-3-yl)phenyl]methyl]amino)-1,4-dihydropyridin-4-one], the “CDMF75 IC15” value was greater than 39.2 µM and the IC50 is greater than 39.2 µM. Take `Cc1coc(-c2ccc(CNc3cnccn3)cc2)n1` [Compound 69, N-[[4-(4-methyl-1,3-oxazol-2-yl)phenyl]methyl]pyrazin-2-amine]: the “CDMF75 IC15” value came to 18.4 µM and the IC50 is greater than 39.2 µM.

As for `FC(F)(F)c1nc(-c2ccc(CNc3cnccn3)cc2)no1` [Compound 70, N-(4-(5-(trifluoromethyl)-1,2,4-oxadiazol-3-yl)benzyl)pyrazin-2-amine], the “CDMF75 IC15” value was determined as 0.8 µM and the IC50 stood at 4.1 µM.
